Values of other authors, collected in US20060003984A1, “Monobactam compositions and methods of use thereof” (Chiron Corporation, priority 2001, published 2006).

Test system: Gram-negative bacteria
Conditions: many Gram-negative bacteria

In the case of `NC[C@H]1O[C@H](O[C@H]2[C@H](O)[C@@H](O[C@H]3O[C@H](CO)[C@@H](O)[C@H](N)[C@H]3O)[C@H](N)C[C@@H]2N)[C@H](N)C[C@@H]1O` [tobramycin], the “concentration effective in inhibiting growth” value is listed as < 4 µg/mL.
